What was measured:
[1] = tested on: HEK293 cells; experiment: Preliminary screening as DNA vectors, GFP transfection of HEK293 cells; type: cell-based; conditions: HEK293 cells; lipid/DOPE liposome with 75 ng plasmid DNA (psin-EGFP-IRES-Puro); number of cells expressing GFP divided by total number of nuclei (Hoechst)
In short: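 First, amino lipid and DOPE were vortexed in sodium acetate buffer (pH 5.6) to form liposomes. Next, these were held with 75 ng EGFP plasmid at room temperature for 30 min. Finally, HEK293 cells were added, cultured at 37° C., Hoechst-stained, and GFP+/total nuclei scored by imaging.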

[2] = tested on: HEK293 cells; experiment: Preliminary screening as mRNA vectors, EGFP mRNA transfection of HEK293 cells; type: cell-based; conditions: HEK293 cells, 96-well plates, EGFP mRNA 50 ng per well; percentage of GFP fluorescent cells relative to total number of cells (Hoechst)
In short: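 Screening format: EGFP mRNA transfection (50 ng/well) into HEK293 in 10% FBS-supplemented DMEM. Percent green fluorescent cells, normalised to Hoechst nuclear count, gave the value; Lipofectamine2000 was the reference transfectant.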

Structure (SMILES) | Absolute DNA transfection efficiency in HEK293 cells [1] | Absolute mRNA transfection efficiency in HEK293 cells [2]
CCCCCCCCCCCCCCCCCCNc1nc(NCCCCCCC)nc(NCCCN2CCN(C)CC2)n1 [Compound N7N18D9] | 2.1% | 0.5%
CCCCCCCCCNc1nc(NCCCCCCCC)nc(NCCCN2CCOCC2)n1 [Compound N8N9D8] | 0.0% | 0.0%
CCCCCCCCCCCCCCCCSc1nc(NCCN(CC)CC)nc(SCCCCCCCCCCC)n1 [Compound S11S16D7] | 2.2% | 0.5%
CCCCCCCCCCCNc1nc(NCCCCCCCCC)nc(NCCN(CC)CC)n1 [Compound N9N11D7] | 0.0% | 0.8%
CCCCCCCCCCCCCCCNc1nc(NCCCCCCCCCCCCCCC)nc(NCCN2CCCCC2)n1 [Compound N15N15D4] | 1.3% | 0.8%
CCCCCCCNc1nc(NCCCCCC)nc(NCCCN2CCOCC2)n1 [Compound N6N7D8] | 0.0% | 0.0%
CCCCCCCCCCCNc1nc(NCCCCCCC)nc(NCCCN2CCN(C)CC2)n1 [Compound N7N11D9] | 0.1% | 0.0%
CCCCCCCCCCCCCCCNc1nc(NCCCCCCCCCCC)nc(NCCN(CC)CC)n1 [Compound N11N15D7] | 0.2% | 0.0%
CCCCCCCCCCCCCCSc1nc(NCCN2CCOCC2)nc(SCCCCCCCCCCCC)n1 [Compound S12S14D2] | 0.1% | 0.2%
CCCCCCCCCCCCCCCSc1nc(NCCCN(C)C)nc(SCCCCCCCCCCCCCCC)n1 [Compound S15S15D6] | 0.4% | 0.9%
CCCCCCCCCCCCCCCCNc1nc(NCCCCCCCCCCC)nc(NCCN(CC)CC)n1 [Compound N11N16D7] | 0.0% | 0.7%
CCCCCCCCCCCCCCCCCCNc1nc(NCCCN(C)C)nc(N(CCCCCCCCCCCC)CCCCCCCCCCCC)n1 [N18^2N12D6] | 1.3% | 2.1%
CCCCCCCCCCCCN(CCCCCCCCCCCC)c1nc(NCCCCCCC)nc(NCCN(C)C)n1 [N7^2N12D1] | 3.6% | 3.5%
CCCCCCCCCCCSc1nc(NCCN(C)C)nc(SCCCCCCCCCC)n1 [Compound S10S11D1] | 7.0% | 1.2%
CCCCCCCCCCCCCCCCNc1nc(NCCCCCCC)nc(NCCN2CCN(C)CC2)n1 [Compound N7N16D5] | 0.3% | 0.0%
CCCCCCCCCCCCCCCCCCNc1nc(NCCCCCCCCC)nc(NCCN2CCCCC2)n1 [Compound N9N18D4] | 19.9% | 1.3%
CCCCCCCCCCCCCCCCNc1nc(NCCCCCCCC)nc(NCCN2CCCC2)n1 [Compound N8N16D3] | 8.5% | 13.8%
CCCCCCCCCCCCCNc1nc(NCCCCCCCCC)nc(NCCN(C)C)n1 [Compound N9N13D1] | 0.4% | 2.2%
CCCCCCCCCCCNc1nc(NCCCCCCCCC)nc(NCCN2CCCCC2)n1 [Compound N9N11D4] | 0.0% | 0.0%
CCCCCCCCCCCCCCCCCCNc1nc(NCCCCCCCCCCCCCCCC)nc(NCCN2CCOCC2)n1 [Compound N16N18D2] | 1.2% | 0.0%
CCCCCCCCCCCCCCCCCCNc1nc(NCCCCCCCCCCCCCCCC)nc(NCCCN2CCN(C)CC2)n1 [Compound N16N18D9] | 0.0% | 0.0%
CCCCCCCCCNc1nc(NCCCCCCCC)nc(NCCCN2CCN(C)CC2)n1 [Compound N8N9D9] | 0.0% | 0.0%
CCCCCCCCCCCCN(CCCCCCCCCCCC)c1nc(NCCCCCCCC)nc(NCCN(C)C)n1 [N8^2N12D1] | 0.0% | 0.2%
CCCCCCCCCCCCCCCCCCSc1nc(NCCN2CCCCC2)nc(SCCCCCCCCCCC)n1 [Compound S11S18D4] | 3.3% | 1.4%

Reference: patent publication US20230123334A1, “AMINO LIPID COMPOUND, PREPARATION METHOD THEREFOR, AND APPLICATION THEREOF” (SHENZHEN SHENXIN BIOTECHNOLOGY CO., LTD., priority 2020, published 2023)
